Source: patent US9410182B2, “Phosphatase coupled glycosyltransferase assay” (Bio-Techne Corporation, priority 2010, dated 2016)

Assays:
Type in all cases: biochemical
ST6Gal 1 = biological target: T1, ST6Gal 1 (Homo sapiens, UniProt P15907); test: Sialyltransferase activity of ST6Gal 1 assayed with CD73; conditions: for specific activity of ST6Gal 1 against acceptor: 1 mM lactosamine or 4 mM lactose as acceptor, 1 mM CMP-NeuAc, 0.1 μg CD73
T1 construct: purchased R&D Systems
T1 sequence (P15907 1-406): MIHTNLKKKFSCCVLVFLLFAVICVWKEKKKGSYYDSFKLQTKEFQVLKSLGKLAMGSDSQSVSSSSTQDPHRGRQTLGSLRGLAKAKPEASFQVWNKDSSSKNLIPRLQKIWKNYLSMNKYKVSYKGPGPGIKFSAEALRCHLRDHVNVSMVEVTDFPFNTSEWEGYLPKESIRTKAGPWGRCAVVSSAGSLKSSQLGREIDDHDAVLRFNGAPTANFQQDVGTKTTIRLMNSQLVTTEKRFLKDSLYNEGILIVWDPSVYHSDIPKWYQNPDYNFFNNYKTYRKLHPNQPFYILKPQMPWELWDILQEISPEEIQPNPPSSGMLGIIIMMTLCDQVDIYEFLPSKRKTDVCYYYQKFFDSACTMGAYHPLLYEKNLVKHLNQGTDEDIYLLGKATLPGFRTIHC
Description: (§1) The GDP-Fucose, UDP-Glucose, CMP-NeuAc, CMP, UDP and GDP used in the following experiments were obtained from Sigma-Aldrich (St Louis, Mo.). The recombinant human Fut7, ST6Gal1, CD73, CD39L3, non-specific alkaline phosphatase TNAP, recombinant Clostridium Difficile toxin B (TcdB) containing the glycosyltransferase domain and Malachite Green Phosphate Detection Kit were obtained from R&D Systems (Minneapolis, Minn.). The 3′-Sialyl-N-acetyllactosamine was obtained from V-LABS, Inc (Convington, La.). Unless otherwise specified, each glycosyltransferase reaction was performed in 50 μL of a buffer of 25 mM Tris, 150 mM NaCl, 5 mM MgCl2 and 5 mM MnCl2, at pH 7.5 in a 96-well plate at room temperature for 20 minutes. To determine kinetic parameters of each glycosyltransferase, multiple reactions with varied amounts of either glycosyltransferase or substrates were preceded simultaneously in the presence of fixed amounts of all other components, including a phosphatase. A well containing all components except glycosyltransferase served as a blank control for each example. The reactions were stopped by adding 30 μL of Malachite Reagent A and 100 μL of water to each well. The color was developed by adding 30 μL of Malachite Reagent B to each well followed by gently tapping on the edge and incubation for 30 minutes. The plate was then read at 620 nm with a multi-well plate reader.
Sialic acid is negatively charged under normal pH conditions, making sialyltransferases more difficult to assay than other glycosyltransferases. Because both the donor and product are likely negatively charged, separating them by common ion exchange chromatography separation is challenging. In this experiment, ST6Gal 1, a sialyltransferase, was assayed using 0.1 μg CD73 in a 96-well plate. First, enzyme curves were obtained with either 1 mM lactosamine or 4 mM lactose as the acceptor in the presence of 1 mM CMP-NeuAc. The results are shown in FIG. 7, and the specific activities against lactosamine and lactose were determined to be 458 and 41 pmol/min/μg respectively, confirming that the enzyme strongly favors lactosamine structure. The apparent Km and Vmax were determined for one substrate while fixing the other by fitting the data to KaleidaGraph 4 program.

CD73 = biological target: T2, CD73 (Homo sapiens, UniProt P21589); test: Phosphate release from CMP by CD73, malachite green detection; conditions: 0.1 μg CD73, up to 10 nmol nucleotide, 15 minutes, room temperature
T2 construct: purchased R&D Systems
T2 sequence (P21589 27-549): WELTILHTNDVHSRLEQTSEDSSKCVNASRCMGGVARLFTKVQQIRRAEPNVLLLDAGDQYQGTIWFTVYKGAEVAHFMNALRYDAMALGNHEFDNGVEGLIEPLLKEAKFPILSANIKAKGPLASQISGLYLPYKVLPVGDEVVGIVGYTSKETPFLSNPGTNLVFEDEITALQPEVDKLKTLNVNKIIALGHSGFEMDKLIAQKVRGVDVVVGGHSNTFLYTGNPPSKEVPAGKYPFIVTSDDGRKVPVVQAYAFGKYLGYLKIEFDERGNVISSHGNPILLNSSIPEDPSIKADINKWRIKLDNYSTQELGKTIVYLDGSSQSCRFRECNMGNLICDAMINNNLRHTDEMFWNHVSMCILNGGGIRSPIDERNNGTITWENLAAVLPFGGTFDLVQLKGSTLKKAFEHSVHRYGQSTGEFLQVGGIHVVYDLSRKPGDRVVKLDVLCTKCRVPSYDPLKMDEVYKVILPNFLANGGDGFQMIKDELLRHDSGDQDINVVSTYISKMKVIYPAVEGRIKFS
Description: as §1, with “The reactions were stopped by adding 30 μL of Malachite Reagent A and 100 μL of water to each well. The color was developed by adding 30 μL of Malachite Reagent B to each well followed by gently tapping on the edge and incubation for 30 minutes.” left out
(§2) UDP, GDP and CMP are common donors in glycosyltransferase reactions. […] In FIG. 4C, it can be seen that TNAP, at 0.1 μg level, could only quantitatively release phosphate up to 2 nmol of nucleotide input. […]

TNAP = biological target: T3, TNAP (Homo sapiens, UniProt P05186); test: Phosphate release from UDP, GDP and CMP by TNAP, malachite green detection; conditions: 1 μg TNAP, up to 10 nmol nucleotide
T3 construct: purchased R&D Systems
T3 sequence (P05186 18-501): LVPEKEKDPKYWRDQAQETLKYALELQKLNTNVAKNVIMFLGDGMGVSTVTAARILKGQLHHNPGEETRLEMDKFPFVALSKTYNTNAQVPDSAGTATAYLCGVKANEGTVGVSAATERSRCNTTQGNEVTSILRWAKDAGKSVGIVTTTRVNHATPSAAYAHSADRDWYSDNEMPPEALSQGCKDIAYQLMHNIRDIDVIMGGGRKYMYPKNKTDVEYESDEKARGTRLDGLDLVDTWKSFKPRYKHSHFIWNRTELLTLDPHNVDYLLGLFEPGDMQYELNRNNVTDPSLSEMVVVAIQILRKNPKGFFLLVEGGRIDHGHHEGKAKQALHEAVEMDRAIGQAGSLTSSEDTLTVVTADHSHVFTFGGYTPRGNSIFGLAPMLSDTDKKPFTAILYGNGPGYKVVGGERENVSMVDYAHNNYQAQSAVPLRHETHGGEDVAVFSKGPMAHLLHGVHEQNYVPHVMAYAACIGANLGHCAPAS
Description: as §1, with “The reactions were stopped by adding 30 μL of Malachite Reagent A and 100 μL of water to each well. The color was developed by adding 30 μL of Malachite Reagent B to each well followed by gently tapping on the edge and incubation for 30 minutes.” left out
as §2

CD39L3 = biological target: T4, CD39L3 (Homo sapiens, UniProt O75355); test: Phosphate release from UDP and GDP by CD39L3, malachite green detection; conditions: 0.1 μg CD39L3, up to 10 nmol nucleotide, 15 minutes, room temperature
T4 construct: purchased R&D Systems
T4 sequence (O75355 1-529): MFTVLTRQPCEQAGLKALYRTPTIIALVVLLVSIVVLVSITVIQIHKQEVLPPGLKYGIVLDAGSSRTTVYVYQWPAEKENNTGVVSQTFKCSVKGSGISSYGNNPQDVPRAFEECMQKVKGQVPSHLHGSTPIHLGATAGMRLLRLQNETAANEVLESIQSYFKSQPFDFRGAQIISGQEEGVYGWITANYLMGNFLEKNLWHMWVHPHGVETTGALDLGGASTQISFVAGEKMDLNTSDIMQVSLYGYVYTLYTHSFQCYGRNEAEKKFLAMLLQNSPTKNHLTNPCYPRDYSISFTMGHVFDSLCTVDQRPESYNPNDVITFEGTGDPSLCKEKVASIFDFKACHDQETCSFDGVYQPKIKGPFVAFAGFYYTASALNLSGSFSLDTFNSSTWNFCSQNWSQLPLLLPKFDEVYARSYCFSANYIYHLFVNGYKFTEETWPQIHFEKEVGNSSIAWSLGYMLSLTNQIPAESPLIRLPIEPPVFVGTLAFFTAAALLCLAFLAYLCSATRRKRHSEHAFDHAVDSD
Description: as §1, with “The reactions were stopped by adding 30 μL of Malachite Reagent A and 100 μL of water to each well. The color was developed by adding 30 μL of Malachite Reagent B to each well followed by gently tapping on the edge and incubation for 30 minutes.” left out
as §2

N[C@H]1C(O)O[C@H](CO)[C@@H](O[C@@H]2O[C@H](CO)[C@H](O)[C@H](O)[C@H]2O)[C@@H]1O (stereo partly drawn) [lactosamine]
specific activity of ST6Gal 1 against acceptor (ST6Gal 1): 458 pmol/min/µg

OC[C@H]1O[C@@H](O[C@H]2[C@H](O)[C@@H](O)C(O)O[C@@H]2CO)[C@H](O)[C@@H](O)[C@H]1O (stereo partly drawn) [lactose]
specific activity of ST6Gal 1 against acceptor (ST6Gal 1): 41 pmol/min/µg

Nc1ccn([C@@H]2O[C@H](COP(=O)(O)O)[C@@H](O)[C@H]2O)c(=O)n1 [CMP]
dephosphorylation of nucleotide by CD73 (CD73): completely

O=c1ccn([C@@H]2O[C@H](COP(=O)(O)OP(=O)(O)O)[C@@H](O)[C@H]2O)c(=O)[nH]1 [UDP]
phosphate released from nucleotide by TNAP (TNAP): about two | phosphate released from nucleotide by CD39L3 (CD39L3): one

CC(=O)N[C@H]1[C@H]([C@H](O)[C@H](O)CO)O[C@](OP(=O)(O)OC[C@H]2O[C@@H](n3ccc(N)nc3=O)[C@H](O)[C@@H]2O)(C(=O)O)C[C@@H]1O [CMP-NeuAc, CMP-N-Acetylneuraminic acid]
apparent Vmax (ST6Gal 1; donor varied, lactosamine fixed at 1 mM): 710 ± 16 pmol/min/µg | Km (ST6Gal 1; donor varied, lactosamine fixed at 1 mM, read-out: apparent Km): 530 ± 40 µM

Nc1nc2c(ncn2[C@@H]2O[C@H](COP(=O)(O)OP(=O)(O)O)[C@@H](O)[C@H]2O)c(=O)[nH]1 [GDP]
phosphate released from nucleotide by TNAP (TNAP): about two | phosphate released from nucleotide by CD39L3 (CD39L3): one
